{
  "source": "paper PMC6230509",
  "about": "(Neuropharmacology, 2018)",
  "key": {"[1]": {"target": "5-HT2A receptor", "settings": "read-out: Ki vs. [3H]ketanserin, ref Stevenson et al. 2000; cited from earlier work"}, "[2]": {"test_system": "head twitch response (5-HT2A receptor-mediated)", "assay": "Head twitch response", "assay_type": "in vivo, C57BL/6J mice", "settings": "for activity in the HTR assay (in words): C57BL/6J mice, within the dose range tested; for ED50: Mus musculus, ip"}, "[3]": {"settings": "humans, ref Shulgin and Shulgin 2004, cited from earlier work"}, "[4]": {"test_system": "DOM discriminative stimulus", "settings": "ref Gatch et al. 2017; cited from earlier work"}, "[5]": {"test_system": "recombinant human 5-HT2A receptors", "settings": "ref Arunotayanun et al. 2013; cited from earlier work"}, "[6]": {"test_system": "5-MeO-DMT discriminative stimulus", "settings": "ref Glennon et al. 1980a; cited from earlier work"}, "[7]": {"target": "rat 5-HT2A receptor", "settings": "read-out: Ki, rat 5-HT2A receptor; [3H]ketanserin; ref Gallaher et al. (1993); cited from earlier work"}, "[8]": {"settings": "read-out: ED50 (95% CI) (mg/kg)"}, "[9]": {"settings": "read-out: ED50 (95% CI) (μmol/kg)"}, "[10]": {"settings": "0.875 mg/kg IP, duration 30 min"}, "[11]": {"settings": "HTR, IP, male C57BL/6J mice, analysis block 5–30 min depending on drug"}},
  "note": "Read-outs that look alike come from different tables or passages of the source.",
  "data": [
    {"smiles": "CCN(CC)CCc1c(-c2ccccc2)[nH]c2ccccc12", "note": "[2-phenyl-N,N-diethyltryptamine]", "values": [
      {"measurement": "Ki", "setting": "[1]", "value": 2.8, "unit": "nM"}
    ]},
    {"smiles": "CN(C)CCc1c(-c2ccccc2)[nH]c2ccccc12", "note": "[2-phenyl-N,N-dimethyltryptamine]", "values": [
      {"measurement": "Ki", "setting": "[1]", "value": 4.4, "unit": "nM"}
    ]},
    {"smiles": "C=CCN(CC=C)CCc1c[nH]c2ccc(Br)cc12", "note": "[5-Br-DALT, 5-bromo-N,N-diallyltryptamine]", "values": [
      {"measurement": "HTR Counts (mean ± SEM)", "setting": "[2]; 3.5 mg/kg IP, duration 30 min", "value": "5.0 ± 0.3"},
      {"measurement": "HTR Counts (mean ± SEM)", "setting": "[2]; 7 mg/kg IP, duration 30 min", "value": "10.8 ± 2.7"},
      {"measurement": "HTR Counts (mean ± SEM)", "setting": "[2]; 14 mg/kg IP, duration 30 min", "value": "8.6 ± 2.7"},
      {"measurement": "HTR Counts (mean ± SEM)", "setting": "[2]; 28 mg/kg IP, duration 30 min", "value": "1.4 ± 0.4"},
      {"measurement": "HTR Counts (mean ± SEM)", "setting": "[2]; 56 mg/kg IP, duration 30 min", "value": "1.4 ± 1.4"},
      {"measurement": "activity in the HTR assay (in words)", "setting": "[2]; IP", "value": "active"},
      {"measurement": "ED50", "setting": "[2]; [8]", "value": 4.8, "unit": "mg/kg"},
      {"measurement": "ED50", "setting": "[2]; [9]", "value": 13.5, "unit": "µmol/kg"}
    ]},
    {"smiles": "C=CCN(CC=C)CCc1c[nH]c2ccc(F)cc12", "note": "[5-F-DALT, 5-fluoro-N,N-diallyltryptamine]", "values": [
      {"measurement": "HTR Counts (mean ± SEM)", "setting": "[2]; [10]", "value": "9.8 ± 2.6"},
      {"measurement": "HTR Counts (mean ± SEM)", "setting": "[2]; 1.75 mg/kg IP, duration 30 min", "value": "21.0 ± 5.7"},
      {"measurement": "HTR Counts (mean ± SEM)", "setting": "[2]; 3.5 mg/kg IP, duration 30 min", "value": "36.0 ± 6.8"},
      {"measurement": "HTR Counts (mean ± SEM)", "setting": "[2]; 7 mg/kg IP, duration 30 min", "value": "26.8 ± 7.1"},
      {"measurement": "HTR Counts (mean ± SEM)", "setting": "[2]; 14 mg/kg IP, duration 30 min", "value": "21.0 ± 4.0"},
      {"measurement": "activity in the HTR assay (in words)", "setting": "[2]; IP", "value": "active"},
      {"measurement": "ED50", "setting": "[2]; [8]", "value": 1.58, "unit": "mg/kg"},
      {"measurement": "ED50", "setting": "[2]; [9]", "value": 5.4, "unit": "µmol/kg"}
    ]},
    {"smiles": "C=CCN(CC=C)CCc1c[nH]c2ccc(OC)cc12", "note": "[5-MeO-DALT, 5-methoxy-N,N-diallyltryptamine]", "values": [
      {"measurement": "duration of psychoactive effects", "setting": "[3]; oral 12–20 mg", "value": "2 to 4", "unit": "h"},
      {"measurement": "oral doses producing psychoactive effects", "setting": "[3]; oral", "value": "12 to 20", "unit": "mg"},
      {"measurement": "HTR Counts (mean ± SEM)", "setting": "[2]; 1.75 mg/kg IP, duration 20 min", "value": "6.6 ± 1.0"},
      {"measurement": "HTR Counts (mean ± SEM)", "setting": "[2]; 3.5 mg/kg IP, duration 20 min", "value": "19.8 ± 1.5"},
      {"measurement": "HTR Counts (mean ± SEM)", "setting": "[2]; 7 mg/kg IP, duration 20 min", "value": "8.8 ± 2.6"},
      {"measurement": "HTR Counts (mean ± SEM)", "setting": "[2]; 14 mg/kg IP, duration 20 min", "value": "8.0 ± 4.9"},
      {"measurement": "activity in the HTR assay (in words)", "setting": "[2]; IP", "value": "active"},
      {"measurement": "ED50", "setting": "[2]; [8]", "value": 2.25, "unit": "mg/kg"},
      {"measurement": "ED50", "setting": "[2]; [9]", "value": 7.3, "unit": "µmol/kg"},
      {"measurement": "substitution in rats trained to discriminate DOM", "setting": "[4]", "value": "full substitution"},
      {"measurement": "functional activity at recombinant human 5-HT2A receptors", "setting": "[5]", "value": "agonist"}
    ]},
    {"smiles": "CCc1cccc2c(CCN(C)C)c[nH]c12", "note": "[7-Ethyl-DMT]", "values": [
      {"measurement": "substitution in rats trained to discriminate 5-MeO-DMT from vehicle", "setting": "[6]", "value": "partial substitution"}
    ]},
    {"smiles": "C=CCN(CC=C)CCc1c[nH]c2ccccc12", "note": "[DALT, N,N-diallyltryptamine]", "values": [
      {"measurement": "HTR Counts (mean ± SEM)", "setting": "[2]; [10]", "value": "8.2 ± 2.8"},
      {"measurement": "HTR Counts (mean ± SEM)", "setting": "[2]; 1.75 mg/kg IP, duration 30 min", "value": "6.8 ± 2.6"},
      {"measurement": "HTR Counts (mean ± SEM)", "setting": "[2]; 3.5 mg/kg IP, duration 30 min", "value": "14.2 ± 4.3"},
      {"measurement": "HTR Counts (mean ± SEM)", "setting": "[2]; 7 mg/kg IP, duration 30 min", "value": "21.8 ± 4.4"},
      {"measurement": "HTR Counts (mean ± SEM)", "setting": "[2]; 14 mg/kg IP, duration 30 min", "value": "20.6 ± 2.7"},
      {"measurement": "activity in the HTR assay (in words)", "setting": "[2]; IP", "value": "active"},
      {"measurement": "ED50 (95% CI) (mg/kg)", "setting": "[2]; [11]", "value": "3.42 (2.44–4.79) mg/kg"},
      {"measurement": "ED50 (95% CI) (μmol/kg)", "setting": "[2]; [11]", "value": "12.3 (8.8–17.3) μmol/kg"}
    ]},
    {"smiles": "CN(C)CCc1c[nH]c2ccc(O)cc12", "note": "[bufotenine]", "values": [
      {"measurement": "Ki", "setting": "[7]", "value": 520, "unit": "nM"}
    ]},
    {"smiles": "CN(C)CCc1c[nH]c2cccc(O)c12", "note": "[psilocin, 4-hydroxy-DMT]", "values": [
      {"measurement": "Ki", "setting": "[7]", "value": 5100, "unit": "nM"}
    ]}
  ]
}
